Measurements from ChEMBL document CHEMBL3808272, “Discovery of (S)-4-isobutyloxazolidin-2-one as a novel leucyl-tRNA synthetase (LRS)-targeted mTORC1 inhibitor” (Bioorg Med Chem Lett, 2016).
Calls of active or inactive are those of the source. The rule behind the calls is not given here.

Columns and labels:
[1] = molecular target: Leucine--tRNA ligase, cytoplasmic (Homo sapiens) (UniProt Q9P2J5); assay: Inhibition of leucyl-tRNA synthetase (unknown origin) expressed in HEK293 cells assessed as inhibition of leucine-induced mTORC1-mediated S6 kinase phosphorylation pre-treated at 1 mM followed by leucine stimulation for 10 mins by immunoblotting analysis; format: cell-based
[2] = molecular target: Leucine--tRNA ligase, cytoplasmic (Homo sapiens) (UniProt Q9P2J5); assay: Inhibition of leucyl-tRNA synthetase (unknown origin) expressed in HEK293 cells assessed as inhibition of leucine-induced mTORC1-mediated S6 kinase phosphorylation pre-treated with compound followed by leucine stimulation for 10 mins by immunoblotting analysis; format: cell-based
HEK293 [3] = assay: Inhibition of mTORC2 (unknown origin) expressed in HEK293 cells assessed as inhibition of leucine-induced Akt S473 phosphorylation pre-treated at 100 nM to 800 uM followed by leucine stimulation for 10 mins by immunoblotting analysis; format: cell-based; details: Homo sapiens
[4] = molecular target: Leucine--tRNA ligase, cytoplasmic (Homo sapiens) (UniProt Q9P2J5); assay: Inhibition of leucyl-tRNA synthetase (unknown origin) catalytic activity assessed as aminoleucylation
HEK293 [5] = assay: Effect on cellular Akt level in HEK293 cells pre-treated at 100 nM to 800 uM followed by leucine stimulation for 10 mins by immunoblotting analysis; format: cell-based; details: human
[6] = molecular target: Leucine--tRNA ligase, cytoplasmic (Homo sapiens) (UniProt Q9P2J5); assay: Inhibition of leucyl-tRNA synthetase (unknown origin) expressed in HEK293 cells assessed as inhibition of leucine-induced mTORC1-mediated S6 kinase phosphorylation pre-treated at 100 nM followed by leucine stimulation for 10 mins by immunoblotting analysis; format: cell-based
HEK293 [7] = assay: Inhibition of mTORC2 (unknown origin) expressed in HEK293 cells assessed as inhibition of leucine-induced Akt S473 phosphorylation pre-treated at 100 nM followed by leucine stimulation for 10 mins by immunoblotting analysis; format: cell-based; details: Homo sapiens
SW-620 [8] = assay: Cytotoxicity against rapamycin resistant human SW620 cells at 1 uM by CellTox green fluorescent dye based assay; format: functional, cell-based
HEK293 [9] = assay: Effect on cellular Akt level in HEK293 cells pre-treated at 100 nM followed by leucine stimulation for 10 mins by immunoblotting analysis; format: ADME, cell-based; details: human, hek293, 0.1 µM
[10] = molecular target: Leucine--tRNA ligase, cytoplasmic (Homo sapiens) (UniProt Q9P2J5); assay: Inhibition of leucyl-tRNA synthetase (unknown origin) expressed in HEK293 cells assessed as inhibition of leucine-induced mTORC1-mediated S6 kinase phosphorylation pre-treated at 800 uM followed by leucine stimulation for 10 mins by immunoblotting analysis; format: cell-based
HEK293 [11] = assay: Inhibition of mTORC2 (unknown origin) expressed in HEK293 cells assessed as inhibition of leucine-induced Akt S473 phosphorylation pre-treated at 800 uM followed by leucine stimulation for 10 mins by immunoblotting analysis; format: cell-based; details: Homo sapiens
SW-620 [12] = assay: Cytotoxicity against rapamycin resistant human SW620 cells at 400 uM to 4 mM by CellTox green fluorescent dye based assay; format: functional, cell-based
HEK293 [13] = assay: Effect on cellular Akt level in HEK293 cells pre-treated at 800 uM followed by leucine stimulation for 10 mins by immunoblotting analysis; format: ADME, cell-based; details: human, hek293, 800 µM
SW-620 [14] = assay: Cytotoxicity against rapamycin resistant human SW620 cells by CellTox green fluorescent dye based assay; format: functional, cell-based

Chain of Leucine--tRNA ligase, cytoplasmic (Homo sapiens) (Q9P2J5 whole entry, looked up): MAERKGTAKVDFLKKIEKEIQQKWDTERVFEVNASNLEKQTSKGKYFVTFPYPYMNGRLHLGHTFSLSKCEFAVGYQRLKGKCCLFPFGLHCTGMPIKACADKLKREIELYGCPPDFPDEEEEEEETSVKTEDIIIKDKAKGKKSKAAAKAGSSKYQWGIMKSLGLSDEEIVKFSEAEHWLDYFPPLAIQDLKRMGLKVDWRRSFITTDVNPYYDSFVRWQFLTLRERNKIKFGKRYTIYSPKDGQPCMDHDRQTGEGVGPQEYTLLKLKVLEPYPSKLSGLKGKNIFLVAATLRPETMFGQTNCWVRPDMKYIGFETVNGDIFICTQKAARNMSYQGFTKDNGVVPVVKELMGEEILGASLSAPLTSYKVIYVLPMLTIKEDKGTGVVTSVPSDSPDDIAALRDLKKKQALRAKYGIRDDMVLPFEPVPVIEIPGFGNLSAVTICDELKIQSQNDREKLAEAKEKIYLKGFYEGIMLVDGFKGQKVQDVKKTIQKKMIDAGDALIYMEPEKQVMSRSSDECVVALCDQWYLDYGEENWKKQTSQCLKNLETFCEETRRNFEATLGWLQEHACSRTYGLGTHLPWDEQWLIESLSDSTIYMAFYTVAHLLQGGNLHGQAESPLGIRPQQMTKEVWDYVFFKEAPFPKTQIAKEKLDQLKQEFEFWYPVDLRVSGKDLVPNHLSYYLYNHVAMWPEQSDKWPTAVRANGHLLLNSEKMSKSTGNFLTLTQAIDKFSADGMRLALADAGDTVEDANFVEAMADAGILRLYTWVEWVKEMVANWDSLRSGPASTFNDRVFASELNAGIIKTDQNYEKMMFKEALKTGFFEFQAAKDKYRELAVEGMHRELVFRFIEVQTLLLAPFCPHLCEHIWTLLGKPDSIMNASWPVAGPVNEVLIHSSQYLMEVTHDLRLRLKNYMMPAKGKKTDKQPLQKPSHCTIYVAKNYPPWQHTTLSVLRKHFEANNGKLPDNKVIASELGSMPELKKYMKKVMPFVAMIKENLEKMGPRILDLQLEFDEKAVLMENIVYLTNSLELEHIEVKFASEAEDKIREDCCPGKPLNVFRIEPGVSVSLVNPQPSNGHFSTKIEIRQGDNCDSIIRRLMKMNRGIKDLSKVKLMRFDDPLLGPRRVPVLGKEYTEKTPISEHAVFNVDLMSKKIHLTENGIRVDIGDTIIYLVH

Compound: CC(C)C[C@H](N)CNS(C)(=O)=O
- inhibition [1]: inactive

Compound: CC(C)C[C@H](N)CCN
- inhibition [1]: inactive

Compound: COC[C@@H](N)CC(C)C
- inhibition [1]: inactive

Compound: CC(C)C[C@H](N)COS(C)(=O)=O
- inhibition [1]: inactive

Compound: CC(C)C[C@H](N)CN
- inhibition [1]: inactive

Compound: CC(C)C[C@H](N)CCO
- inhibition [1]: inactive

Compound: CC(C)Cc1ncc[nH]1
- inhibition [1]: Active
- inhibition [2]: Dose-dependent effect
- inhibition (HEK293 [3]): inactive
- inhibition [4]: inactive
- Activity (HEK293 [5]): Non-toxic

Compound: CC(C)C[C@H](N)[C@@H](C)O
- inhibition [1]: inactive

Compound: CC(C)C[C@H](N)/C=N/O
- inhibition [1]: inactive

Compound: CO[C@H]1C[C@@H]2CC[C@@H](C)[C@@](O)(O2)C(=O)C(=O)N2CCCC[C@H]2C(=O)O[C@H]([C@H](C)C[C@@H]2CC[C@@H](O)[C@H](OC)C2)CC(=O)[C@H](C)/C=C(\C)[C@@H](O)[C@@H](OC)C(=O)[C@H](C)C[C@H](C)/C=C/C=C/C=C/1C [SIROLIMUS]
- inhibition [6]: Active
- inhibition (HEK293 [7]): inactive
- Activity (SW-620 [8]): inactive
- Activity (HEK293 [9]): Non-toxic

Compound: CC(=O)NC[C@@H](N)CC(C)C
- inhibition [1]: inactive

Compound: CC(C)C[C@H]1COC(=O)N1
- inhibition [1]: Active
- inhibition [2]: Dose-dependent effect
- inhibition (HEK293 [3]): inactive
- Activity (HEK293 [5]): Non-toxic

Compound: CC(C)C[C@H](N)CO
- inhibition [1]: Active
- inhibition [10]: Active
- inhibition (HEK293 [11]): inactive
- Activity (SW-620 [12]): Active
- Activity (HEK293 [13]): Non-toxic

Compound: CC(C)C[C@H](N)CNO
- inhibition [1]: Active
- inhibition [2]: Dose-dependent effect
- inhibition (HEK293 [3]): inactive
- Activity (HEK293 [5]): Non-toxic

Compound: CC(C)C[C@H]1CNC(=O)N1
- inhibition [1]: Active
- inhibition [2]: Dose-dependent effect
- inhibition (HEK293 [3]): inactive
- inhibition [4]: inactive
- Activity (SW-620 [14]): Dose-dependent effect
- Activity (HEK293 [5]): Non-toxic

Compound: CC(C)C[C@H](N)[C@H](C)O
- inhibition [1]: inactive
